Reference: patent publication US20240140991A1, “ANTIBIOTIC NATURAL PRODUCT ANALOGUES” (THE QUEEN'S UNIVERSITY OF BELFAST, priority 2021, published 2024)
In brackets after ≈: the same amount, converted by molar mass. Positions of bridges follow the written chain, without caps; N, C: chain ends. Non-standard residues stand in square brackets, D forms with d. Residues, ends and D or L forms follow the SMILES beside them. ξ: configuration not given here. *: point of attachment. Octanoyl(7-Me) = CC(C)CCCCCC(=O)*; Hexanoyl(4ξ-Me) = CCC(C)CCC(=O)*; dOrn = NCCC[C@@H](N)C(=O)O; Octanoyl = CCCCCCCC(=O)*; Orn = NCCC[C@H](N)C(=O)O; Dap = NC[C@H](N)C(=O)O

System: Escherichia coli ATCC 25922
Type: cell-based
Conditions: ATCC 25922
Protocol: Minimum inhibitory concentration (MIC) was determined by broth microdilution according to CLSI guidelines. Blood agar plates were inoculated with glycerol stocks of Escherichia coli ATCC 25922, E. coli ATCC 25922 MCR-1, E. coli MCR-1 (clinical isolate from Utrecht Medical Center, NL), E. coli EQAS MCR-2 (clinical isolate from Wageningen University and Research, NL), Kiebsielia pneumoniae ATCC 11228, K. pneumoniae ATCC 13883, K. pneumonia 2048 (clinical isolate from Vrije Universiteit Amsterdam Medical Center, NL), K. pneumonia JS-123 (clinical isolate from Utrecht Medical Center, NL), Acinetobacter baumannii ATCC 17961, A. baumannil ATCC 17978, A. baumannii 2018-006 (clinical isolate from Rijksinstituut voor Volksgezondheid en Milieu, NL), A. baumannii MDR (clinical isolate from Vrije Universiteit Amsterdam Medical Center, NL), Pseudomonas aeruginosa ATCC 27853, P. aeruginosa PAO1, P. aeruginosa NRZ-03961 (Reference strain from Das Nationale Referenzzentrum für gramnegative Krankenhauserreger, DE), P. aeruginosa M-120 (clinical isolate from Leiden University Medical Center, NL) and Staphylococcus aureus USA300 (clinical isolate from Texas Children's Hospitalm, USA). E. coli 25922 MCR1 was grown on LB agar supplemented with kanamycin. The inoculated agar plates were then incubated for 16 hours at 37° C. Individually grown colonies were subsequently used to inoculate 3 mL aliquots of TSB that were then incubated at 37° C. with shaking at 220 rpm. In parallel, the compounds to be assessed were serially diluted with Mueller-Hinton broth (MHB) in polypropylene 96-well plates (50 μL in each well). Once the OD600 of the bacterial suspensions reached 0.5, the bacteria were diluted with MHB (final concentration 2×10^5 CFU mL^−1) and added to the microplates containing the test compounds (50 μL to each well, final volume: 100 μL). The well-plates were sealed with an adhesive membrane and after 16 hours of incubation at 37° C. with shaking at 220 rpm the wells were visually inspected for bacterial growth. MIC values were defined as the lowest concentration of the compound that prevented visible growth of bacteria.

SMILES	Minimum inhibitory concentration (MIC) [µg/mL]
CC[C@H](C)[C@H](NC(=O)[C@@H](NC(=O)[C@H](C)NC(=O)[C@@H](CCCN)NC(=O)CNC(=O)[C@H](CCCN)NC(=O)[C@@H](CCCN)NC(=O)[C@@H](Cc1c[nH]c2ccccc12)NC(=O)[C@@H](Cc1ccc(O)cc1)NC(=O)[C@@H](CO)NC(=O)CCCCCC(C)C)[C@@H](C)O)C(=O)N[C@@H](CC(N)=O)C(=O)NCC(=O)NCC(N)=O [Ala8 (Trp→Ala), FA-sywoOGoATINGG-CONH2] ({Octanoyl(7-Me)}-[dS][dY][dW][dOrn][Orn]G[dOrn]ATINGG-NH2)	>64
CC[C@H](C)[C@H](NC(=O)[C@H](CN)NC(=O)[C@H](Cc1c[nH]c2ccccc12)NC(=O)[C@@H](CCCN)NC(=O)CNC(=O)[C@H](CCCN)NC(=O)[C@@H](CCCN)NC(=O)[C@@H](Cc1c[nH]c2ccccc12)NC(=O)[C@@H](Cc1ccc(O)cc1)NC(=O)[C@@H](CO)NC(=O)CCCCCC(C)C)C(=O)N[C@@H](CC(N)=O)C(=O)NCC(=O)NCC(N)=O [Dap9-CONH2] ({Octanoyl(7-Me)}-[dS][dY][dW][dOrn][Orn]G[dOrn]W[Dap]INGG-NH2)	4 (≈ 2.49 µM)
CC[C@H](C)[C@H](NC(=O)[C@H](CCSC)NC(=O)[C@H](Cc1c[nH]c2ccccc12)NC(=O)[C@@H](CCCN)NC(=O)CNC(=O)[C@H](CCCN)NC(=O)[C@@H](CCCN)NC(=O)[C@@H](Cc1c[nH]c2ccccc12)NC(=O)[C@@H](Cc1ccc(O)cc1)NC(=O)[C@@H](CO)NC(=O)CCCCCC(C)C)C(=O)N[C@@H](CC(N)=O)C(=O)NCC(=O)NCC(N)=O [Met9-CONH2] ({Octanoyl(7-Me)}-[dS][dY][dW][dOrn][Orn]G[dOrn]WMINGG-NH2)	2 (≈ 1.21 µM)
CCCCCCCC(=O)N[C@H](CO)C(=O)N[C@H](Cc1ccc(O)cc1)C(=O)N[C@H](Cc1c[nH]c2ccccc12)C(=O)N[C@H](CCCN)C(=O)N[C@@H](CCCN)C(=O)NCC(=O)N[C@H](CCCN)C(=O)N[C@@H](Cc1c[nH]c2ccccc12)C(=O)N[C@@H](CO)C(=O)N[C@H](C(=O)N[C@@H](CC(N)=O)C(N)=O)[C@@H](C)CC [ΔG12-G13-Ser9-C8] (Octanoyl-[dS][dY][dW][dOrn][Orn]G[dOrn]WSIN-NH2)	4 (≈ 2.7 µM)
CC[C@H](C)[C@H](NC(=O)[C@@H](NC(=O)[C@H](Cc1c[nH]c2ccccc12)NC(=O)[C@@H](C)NC(=O)CNC(=O)[C@H](CCCN)NC(=O)[C@@H](CCCN)NC(=O)[C@@H](Cc1c[nH]c2ccccc12)NC(=O)[C@@H](Cc1ccc(O)cc1)NC(=O)[C@@H](CO)NC(=O)CCCCCC(C)C)[C@@H](C)O)C(=O)N[C@@H](CC(N)=O)C(=O)NCC(=O)NCC(N)=O [Ala7 (D-Orn→D-Ala), FA-sywoOGaWTINGG-CONH2] ({Octanoyl(7-Me)}-[dS][dY][dW][dOrn][Orn]G[dA]WTINGG-NH2)	>64
CCC(C)CCC(=O)N[C@H](CO)C(=O)N[C@H](Cc1ccc(O)cc1)C(=O)N[C@H](Cc1c[nH]c2ccccc12)C(=O)N[C@H](CCCN)C(=O)N[C@@H](CCCN)C(=O)NCC(=O)N[C@H](CCCN)C(=O)N[C@@H](Cc1c[nH]c2ccccc12)C(=O)N[C@@H]1C(=O)N[C@@H]([C@@H](C)CC)C(=O)NCC(=O)N[C@@H](CO)C(=O)NCC(=O)O[C@@H]1C (stereo partly shown) [Compound R1] ({Hexanoyl(4ξ-Me)}-[dS][dY][dW][dOrn][Orn]G[dOrn]WTIGSG; ester 9-C; N-terminus assumed)	2 (≈ 1.29 µM)
CCC(C)CCC(=O)N[C@H](CO)C(=O)N[C@H](Cc1ccc(O)cc1)C(=O)N[C@H](Cc1c[nH]c2ccccc12)C(=O)N[C@H](CCCN)C(=O)N[C@@H](CCCN)C(=O)NCC(=O)N[C@H](CCCN)C(=O)N[C@@H](Cc1c[nH]c2ccccc12)C(=O)N[C@@H]1C(=O)N[C@@H]([C@@H](C)CC)C(=O)NCC(=O)N[C@@H](CO)C(=O)N[C@H](C)C(=O)O[C@@H]1C (stereo partly shown) [Compound R7] ({Hexanoyl(4ξ-Me)}-[dS][dY][dW][dOrn][Orn]G[dOrn]WTIGS[dA]; ester 9-C; N-terminus assumed)	1 (≈ 0.639 µM)
